test system: Phosphorylation of STAT6 in human A549 cells; assay: Phosphorylated STAT6 (pSTAT6) flow cytometry assay in human A549 cells; format: cell-based; details: listed as I-390, read-out: STAT6 IL4 pSTAT6 assay in A549 cells: Average IC50
Source text: Example 3. Phosphorylated STAT6 (pSTAT6) Flow Cytometry Assay in Human A549 Cells
Phosphorylation of STAT6 in human A549 cells was quantitatively measured using flow cytometry technology.

IC50 [µM] | Compound
< 0.1 | COc1cc(F)cnc1N1CCN(C(=O)c2cc3c([C@@H]4CCCN4C)cc(C4=CCCN(C(=O)CCn5ccnn5)C4)c(F)c3[nH]2)CC1 (single isomer, unassigned) [Example I-813]

same assay, conditions: read-out: STAT6 IL4 pSTAT6 assay in A549 cells: Average IC50

Compound | IC50 [µM]
(1R)-3-[4-(4-ethyl-3-pyridyl)-7-fluoro-2-[4-(5-fluoro-3-methoxy-2-pyridyl)piperazine-1-carbonyl]-1H-indol-6-yl]cyclohex-3-ene-1-carboxylic acid [Example I-810] | < 0.1
COc1cnccc1-c1cc(C2=CCCN(C(C)=O)C2)c(F)c2[nH]c(C(=O)N3CCN(c4ncccc4OC)CC3)cc12 [Example I-408] | > 100
Cc1ccc(-c2cc(C3=CCCN(C(=O)CCn4ccnn4)C3)cc3cc(C(=O)N(C)C)oc23)cn1 [Example I-1084] | < 0.1
COCOc1ccc(-c2cc(C3=CCCN(C(=O)CCn4ccnn4)C3)c(F)c3[nH]c(C(=O)N4CCN(c5ncc(F)cc5OC)CC4)cc23)cc1 [Example I-1147] | < 0.1
CC(=O)N1CCC=C(c2cc(-c3ccc(C(F)(F)F)cc3O)c3cc(C(=O)N(C)C)[nH]c3c2F)C1 [Example I-888] | 0.1 to 1
COc1ccccc1-c1cc(C2=CCCN(C(=O)CCn3ccnn3)C2)c(F)c2[nH]c(C(=O)N3CCN(c4cc(F)ccn4)CC3)cc12 [Example I-934] | < 0.1
COc1ccccc1N1CCN(C(=O)c2cc3c(-c4cc(F)cc(F)c4OC)cc(C4=CCCN(C(=O)CCn5ccnn5)C4)c(F)c3[nH]2)CC1 [Example I-601] | < 0.1
COc1ccccc1-c1cc(C2=CCCN(C(=O)CCn3ccnn3)C2)c(F)c2[nH]c(C(=O)N3CCN(c4nccc(-c5cn(C)c6ccccc56)n4)CC3)cc12 [Example I-906] | < 0.1
COc1cccnc1N1CCN(C(=O)c2cc3c(-c4cccc(C)c4OC)cc(C4=CCCN(C(=O)CCn5ccnn5)C4)c(F)c3[nH]2)CC1 [Example I-560] | < 0.1
COc1cc(F)cnc1N1CCN(C(=O)c2cc(-c3cccnc3OC)c3c(c2)cc(C2=CCCN(C(=O)CCn4ccnn4)C2)n3CC2CC2)CC1 [Example I-726] | < 0.1
COc1ccccc1-c1cc(C2=CCCN(C(=O)CCn3ccnn3)C2)c(F)c2[nH]c(C(=O)N3Cc4cccc(F)c4C3)cc12 [Example I-982] | > 100
CCOCc1cc(-c2cc(C3=CCCN(C(=O)CCn4ccnn4)C3)c(F)c3[nH]c(C(=O)N4CCN(c5ncc(F)cc5OC)CC4)cc23)ccc1F [Example I-1128] | < 0.1
COc1ccccc1-c1cc(C2=CCCN(C(=O)CCn3ccnn3)C2)c(F)c2[nH]c(C(=O)N3CCN(c4cnccc4OC)CC3)cc12 [Example I-465] | > 100
COc1cccc(/C=C/c2cc(C3=CCCN(C(=O)CCn4ccnn4)C3)c(F)c3[nH]c(C(=O)N4CCN(c5ncc(F)cc5OC)CC4)cc23)c1 [Example I-1129] | < 0.1
COc1ccccc1-c1cc(C2=CCCN(C(=O)CCn3ccnn3)C2)c(F)c2[nH]c(C(=O)N3CCN(c4ccsc4C#N)CC3)cc12 [Example I-776] | < 0.1
COc1ccccc1-c1cc(C2=CCCN(C(=O)CCn3ccnn3)C2)c(F)c2[nH]c(C(=O)N3Cc4ncn(C)c4C3)cc12 [Example I-541] | < 0.1
COc1cc(F)cnc1N1CCN(C(=O)c2cc3c(-c4ccnc(N5CCOCC5)c4)cc(C4=CCCN(C(=O)CCn5ccnn5)C4)c(F)c3[nH]2)CC1 [Example I-680] | < 0.1
CN(C)CCN(C)C(=O)c1cc2cc(C3=CCCN(C(=O)CCn4ccnn4)C3)ccc2o1 [Example I-844] | 0.1 to 1
CCc1nc(C)ccc1-c1cc(C(=O)N2CCN(c3ncc(F)cc3OC)CC2)cc2cc(C3=CCCN(C(=O)C(C)C(=O)O)C3)n(CC3CC3)c12 (stereo not shown) [Example I-539] | < 0.1
CNc1ccc(-c2cc(C3=CCCN(C(=O)CCn4ccnn4)C3)cc3[nH]c(C(=O)N(C)C)cc23)c(C)c1 [Example I-1053] | < 0.1
COc1cc(F)cnc1N1CCN(C(=O)c2cc3c(C=C4CCOCC4)cc(C4=CCCN(C(=O)CCn5ccnn5)C4)c(F)c3[nH]2)CC1 [Example I-644] | < 0.1
CCc1cn[nH]c1N1CCN(C(=O)c2cc3c(-c4cnccc4OC)cc(C4=CCCN(C(=O)CCn5ccnn5)C4)c(F)c3[nH]2)CC1 [Example I-540] | < 0.1
CC(=O)N1CCC=C(c2cc(-c3ccccc3C(N)=O)c3cc(C(=O)N(C)C)[nH]c3c2F)C1 [Example I-1099] | 0.1 to 1
COc1ccncc1-c1cc(C2=CCCN(C(=O)CCn3ccnn3)C2)c(F)c2[nH]c(C(=O)N3CCN(c4ncncc4OC)CC3)cc12 [Example I-429] | < 0.1
COc1cc(F)cnc1N1CCN(C(=O)c2cc3c([C@@H]4CCCN4C)cc(C4=CCCN(C(=O)CCn5ccnn5)C4)c(F)c3[nH]2)CC1 (single isomer, unassigned) [Example I-813] | > 100
COc1ccccc1-c1cc(C2=CCCN(C(=O)CCn3ccnn3)C2)c(F)c2[nH]c(C(=O)N3CCN(c4ccc(OC)c(OC)c4OC)CC3)cc12 [Example I-922] | 0.1 to 1
COc1ccccc1-c1cc(C2=CCCN(C(=O)CCn3ccnn3)C2)c(F)c2[nH]c(C(=O)N3CCN(c4cc(C)cc5c[nH]nc45)CC3)cc12 [Example I-921] | 0.1 to 1
2-(3-(1-(cyclopropylmethyl)-7-(2-ethyl-6-methylpyridin-3-yl)-5-(4-(5-fluoro-3-methoxypyridin-2-yl)piperazine-1-carbonyl)-1H-indol-2-yl)-5,6-dihydropyridin-1(2H)-yl)-2-oxoacetic acid [Example I-1228] | < 0.1
COc1cccc(N2CCN(C(=O)c3cc4c(-c5ccc(N(C)C)cc5OC)cc(C5=CCCN(C(=O)CCn6ccnn6)C5)c(F)c4[nH]3)CC2)n1 [Example I-1109] | < 0.1

Now from value to compound:

IC50 [µM] | Compound
< 0.1 | COc1ccccc1-c1cc(C2=CCCN(C(=O)CCn3ccnn3)C2)c(F)c2[nH]c(C(=O)N3CCN(c4cn(C)c(=O)c5ccccc45)CC3)cc12 [Example I-905]
< 0.1 | COc1ccccc1-c1cc(C2=CCCN(C(=O)CCn3ccnn3)C2)c(F)c2[nH]c(C(=O)N3CCN(c4nc(C)cs4)CC3)cc12 [Example I-1024]
< 0.1 | COc1cc(F)ccc1-c1cc(C2=CCCN(C(=O)CCn3ccnn3)C2)cc2[nH]c(C(=O)N(C)C)cc12 [Example I-1055]
< 0.1 | CN(C)C(=O)c1cc2cc(C3=CCCN(C(=O)CCn4ccnn4)C3)cc(C3CCNCC3)c2o1 [Example I-1048]
< 0.1 | COc1ccccc1-c1cc(C2=CCCN(C(=O)CCn3ccnn3)C2)c(F)c2[nH]c(C(=O)N3CCN(c4cncc5cccnc45)CC3)cc12 [Example I-954]
< 0.1 | CCn1nccc1-c1cc(C2=CCCN(C(C)=O)C2)c(F)c2[nH]c(C(=O)N3Cc4cnn(CC)c4C3)cc12 [Example I-1176]
< 0.1 | COc1cc(F)cnc1N1CCN(C(=O)c2cc3c(-c4ccc(C(F)(F)F)cc4CO)cc(C4=CCCN(C(=O)CCn5ccnn5)C4)c(F)c3[nH]2)CC1 [Example I-1167]
< 0.1 | COc1ccccc1-c1cc(C2=CCCN(C(=O)CCn3ccnn3)C2)c(F)c2[nH]c(C(=O)N3CCN(C(=O)N(C)C)CC3)cc12 [Example I-866]
< 0.1 | COc1ccccc1-c1cc(C2=CCCN(C(=O)CCn3ccnn3)C2)c(F)c2[nH]c(C(=O)N3CCN(CCCF)CC3)cc12 [Example I-843]
0.1 to 1 | CCn1c(N2CCN(C(=O)c3cc4c(-c5ccccc5OC)cc(C5=CCCN(C(=O)CCn6ccnn6)C5)c(F)c4[nH]3)CC2)cc2ccccc21 [Example I-967]
> 100 | COc1ccccc1N1CCN(C(=O)c2cc3c(-c4cnccc4OC(C)(C)C)cc(C4=CCCN(C(=O)CCn5ccnn5)C4)c(F)c3[nH]2)CC1 [Example I-404]
< 0.1 | COc1ccccc1-c1cc(C2=CCCN(C(=O)CCn3ccnn3)C2)c(F)c2[nH]c(C(=O)N3CCN(Cc4cccn(C)c4=O)CC3)cc12 [Example I-1198]
0.1 to 1 | CN(C)C(=O)c1cc2c(F)c(C3=CCCN(C(=O)[C@@H]4Cc5ccccc5CN4C=O)C3)ccc2o1 (single isomer, unassigned) [Example I-375]
< 0.1 | COc1ccccc1-c1cc(C2=CCCN(C(=O)CCn3ccnn3)C2)c(F)c2[nH]c(C(=O)N3CCN(S(C)(=O)=O)CC3)cc12 [Example I-989]
< 0.1 | COc1cncc(C)c1-c1cc(C2=CCCN(C(=O)CCn3ccnn3)C2)cc2cc(C(=O)N(C)C)oc12 [Example I-1090]
< 0.1 | CCc1cnccc1-c1cc(C2=CCCN(C(=O)CCn3cccn3)C2)c(F)c2[nH]c(C(=O)N3CCN(c4ncc(F)cc4OC)CC3)cc12 [Example I-688]
< 0.1 | COc1cc(F)cnc1N1CCN(C(=O)c2cc3c(C4=CCN(C(C)=O)CC4)cc(C4=CCCN(C(=O)CCn5ccnn5)C4)c(F)c3[nH]2)CC1 [Example I-657]
10 to 100 | CCc1cc(C)ncc1-c1cc(C2=CCCN(C(=O)CCn3ccnn3)C2)c(F)c2[nH]c(C(=O)N3CCN(c4ncc(F)cc4OC)CC3)cc12 [Example I-707]
< 0.1 | COc1ccccc1-c1cc(C2=CCCN(C(=O)CCn3ccnn3)C2)c(F)c2sc(C(=O)N(C)C)cc12 [Example I-337, 6-(1-(3-(1H-1,2,3-triazol-1-yl)propanoyl)-1,2,5,6-tetrahydropyridin-3-yl)-7-fluoro-4-(2-methoxyphenyl)-N,N-dimethylbenzo[b]thiophene-2-carboxamide]
> 100 | COc1cc(F)cnc1N1CCN(C(=O)c2cc3c(-c4cccc(CO)c4C)cc(C4=CCCN(C(=O)CCn5ccnn5)C4)c(F)c3[nH]2)CC1 [Example I-616]
< 0.1 | COc1ccccc1-c1cc(C2=CCCN(C(=O)CCn3ccnn3)C2)c(F)c2[nH]c(C(=O)N3CCN(c4cc(F)c5nc(C)n(C(C)C)c5c4)CC3)cc12 [Example I-340]
10 to 100 | CCc1ccccc1-c1cc(C2=CCCN(C(=O)CCn3ccnn3)C2)c(F)c2[nH]c(C(=O)N3Cc4cnn(C)c4C3)cc12 [Example I-700]
< 0.1 | CCOc1cccnc1N1CCN(C(=O)c2cc3c(-c4ccccc4OC)cc(C4=CCCN(C(=O)CCn5ccnn5)C4)c(F)c3[nH]2)CC1 [Example I-335]
< 0.1 | COc1ccc(C)cc1-c1cc(C2=CCCN(C(=O)CCn3ccnn3)C2)cc2[nH]c(C(=O)N(C)C)cc12 [Example I-1057]
< 0.1 | CN(C)C(=O)c1cc2cc(C3=CCCN(C(=O)CCn4ccnn4)C3)cc(-c3ccc4c(c3)NC(=O)C4)c2o1 [Example I-869]
